Test results: patent US20080261933A1, “COMBINATION OF PROGESTERONE-RECEPTOR ANTAGONIST TOGETHER WITH A LUTEIN-HORMONE-RELEASING HORMONE AGONIST AND ANTAGONIST FOR USE IN BRCA MEDIATED DISEASES” (priority 2007, published 2008)

Columns and labels:
[1] = test system: mammary tumors in Brca1/p53-deficient mice; conditions: mice with BRCA1- or BRCA2 inactivated in mammary glands; cited from earlier work
[2] = oral; cited from earlier work
glucocorticoid = conditions: causes severe side effects; cited from earlier work
tumor cells = experiment: Apoptosis of tumor cells
Description: Such other hormone-dependent diseases may include ovarian cancer, endometrial cancer, myeloma, myoma, lung cancer, meningioma, i.e., diseases which substantially originate or are influenced by the presence of hormone receptors and/or hormone-dependent pathways.

progesterone receptor [3] = target: T1, progesterone receptor (Homo sapiens, UniProt P06401); experiment: Endocrinological profile of the progesterone-receptor antagonist
T1 sequence (P06401 1-933): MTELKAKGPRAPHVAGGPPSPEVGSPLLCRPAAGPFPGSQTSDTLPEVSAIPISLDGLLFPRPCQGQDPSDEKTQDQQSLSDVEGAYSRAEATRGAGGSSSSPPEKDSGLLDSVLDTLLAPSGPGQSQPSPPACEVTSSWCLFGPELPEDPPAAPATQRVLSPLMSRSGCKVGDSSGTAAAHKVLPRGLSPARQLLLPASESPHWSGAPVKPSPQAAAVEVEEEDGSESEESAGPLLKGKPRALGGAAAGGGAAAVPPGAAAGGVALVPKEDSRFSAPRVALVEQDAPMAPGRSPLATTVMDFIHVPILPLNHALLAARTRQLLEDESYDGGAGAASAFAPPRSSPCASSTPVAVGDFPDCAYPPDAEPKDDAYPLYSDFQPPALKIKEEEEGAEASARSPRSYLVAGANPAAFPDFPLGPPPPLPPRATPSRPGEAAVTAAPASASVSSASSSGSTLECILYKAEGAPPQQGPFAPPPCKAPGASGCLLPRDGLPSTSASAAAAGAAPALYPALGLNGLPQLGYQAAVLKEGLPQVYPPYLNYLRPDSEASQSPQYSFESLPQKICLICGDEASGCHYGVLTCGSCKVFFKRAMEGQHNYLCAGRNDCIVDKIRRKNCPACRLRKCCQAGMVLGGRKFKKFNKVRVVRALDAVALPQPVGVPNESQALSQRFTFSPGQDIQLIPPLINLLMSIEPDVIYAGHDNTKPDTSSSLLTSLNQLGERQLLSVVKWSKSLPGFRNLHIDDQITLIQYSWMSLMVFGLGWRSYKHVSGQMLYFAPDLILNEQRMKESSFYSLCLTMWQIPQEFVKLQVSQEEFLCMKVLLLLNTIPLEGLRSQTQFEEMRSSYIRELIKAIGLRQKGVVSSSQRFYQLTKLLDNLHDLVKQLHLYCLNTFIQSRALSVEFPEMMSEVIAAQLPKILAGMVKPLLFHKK
Description: has high antiprogestagenic activity with little or no other endocrinological effects (Fuhrmann, U. et al., J. Med. Chem. 2000, 43, 5010-5016).

progesterone receptor [4] = target: T1, progesterone receptor; conditions: Fuhrmann et al., J. Med. Chem. 2000; cited from earlier work

| Structure (SMILES) | development of mammary tumors [1] | bioavailability when administered orally [2] | anti-glucocorticoid activity (glucocorticoid) | apoptosis of tumor cells (tumor cells) | endocrine side effects such as androgen, estrogen or antiglucocorticoid activity (progesterone receptor [3]) | antiprogestagenic activity (progesterone receptor [4]) | other endocrinological effects (progesterone receptor [4]) |
| --- | --- | --- | --- | --- | --- | --- | --- |
| CC#C[C@]1(O)CC[C@H]2[C@@H]3CCC4=CC(=O)CCC4=C3[C@@H](c3ccc(N(C)C)cc3)C[C@@]21C [mifepristone] | blocks the development of mammary tumors | poor | strong | – | – | – | – |
| CC(=O)c1ccc([C@H]2C[C@@]3(C)[C@@H](CC[C@@]3(O)C(F)(F)C(F)(F)F)[C@@H]3CCC4=CC(=O)CCC4=C32)cc1 [ZK230211, 11β-(4-acetylphenyl)-17β-hydroxy-17α-(1,1,2,2,2-pentafluoroethyl)-estra-4,9-dien-3-one] | – | – | – | increased apoptosis | only very weak or no | high | little or no |
